Counter-ions that a name gives are not always drawn.
Assays:
[1] = Complex formation with hematin (apparent association constants); assay type: binding; conditions: pH 7.5; 1:1 charge-transfer complexes with hematin
Source text: Both 3-benzylnaphtoquinone derivatives form 1:2 or 2:1 complexes with hematin displaying apparent association constants at pH 7.5 of about 10^11-10^13 M^−1. Also the benzoxanthone derivative LJ144K form 1:1 charge-transfer complexes with hematin displaying apparent association constants at pH 7.5 of about 10^5-10^6 M^−1.

[2] = tested on: P. falciparum strain 3D7; test: Antimalarial assay, chloroquine-sensitive P. falciparum 3D7; assay type: cell-based, Plasmodium falciparum; conditions: chloroquine-sensitive strain 3D7
[3] = tested on: hematin polymerization; test: Inhibition of the hematin polymerisation (β-hematin formation), UV-Vis absorbance at 405 nm; assay type: biochemical; conditions: for Maximum inhibition (%) / IC50 drug (equiv.)/hematin (equiv.) ratio: inhibition of β-hematin formation; for IC50 drug (equiv.)/hematin (equiv.) ratio: absorbance at 405 nm
Experimental: The antischistosomial effect is measured by the evaluation of the ability of the compounds to inhibit hematin polymerization according to the biochemical assay previously developed by Ncokazi. K. K. Egan. T. J. Anal. Biochem. 2005, 338, 306-319 adapted to the compounds of the present invention. The assays were monitored by UV-Vis absorption spectrophotometry and IC50 values for inhibition of β-hematin formation were determined from the absorbance at 405 nm versus the drug (equiv.)/hematin (equiv.) ratio.

[4] = tested on: P. falciparum strain Dd2; test: 3H-hypoxanthine incorporation antiproliferation assay, P. falciparum Dd2; assay type: cell-based, Plasmodium falciparum; conditions: multi-resistant P. falciparum strain Dd2
Experimental: Infected erythrocytes in ring stage (0.5% parasitemia, 2.5% hematocrit) in 96-well plates were exposed to the compounds for 48 h and then to radioactive hypoxanthine for 24 h. The amount of radioactivity in precipitable material served as an index of cell proliferation.

SMILES | melting point | further results
CC1=C(Cc2ccc(C(F)(F)F)cc2)C(=O)c2cc(OS(=O)(=O)C(F)(F)F)ccc2C1=O (as salt: methanesulfonate) [Compound 12.29, 6-methyl-5,8-dioxo-7-(4-(trifluoromethyl)benzyl)-5,8-dihydronaphthalen-2-yl trifluoromethanesulfonate] | 127 °C | –
CC1=C(Cc2ccc(C(F)(F)F)cc2)C(=O)c2ccc(OS(=O)(=O)C(F)(F)F)cc2C1=O (as salt: methanesulfonate) [Compound 12.30, 7-methyl-5,8-dioxo-6-(4-(trifluoromethyl)benzyl)-5,8-dihydronaphthalen-2-yl trifluoromethanesulfonate] | 87 to 88 °C | –
COc1ccc2c(c1)C(=O)C(Cc1ccc(Br)cc1)=C(C)C2=O [Compound 12.1, 3-(4-bromobenzyl)-6-methoxy-2-methylnaphthalene-1,4-dione] | 135 to 137 °C | –
COc1ccc2c(c1)C(=O)C(Cc1ccc(C(F)(F)F)cc1)=C(C)C2=O [Compound 12.2] | 86 to 87 °C | –
COc1cc(CC2=C(C)C(=O)c3ccc(OC)cc3C2=O)cc(OC)c1 [Compound 12.4, 3-(3,5-dimethoxybenzyl)-6-methoxy-2-methylnaphthalene-1,4-dione] | 149 °C | –
CC1=C(Cc2ccc(Br)cc2)C(=O)c2cc(F)ccc2C1=O [Compound 12.5, 3-(4-bromobenzyl)-6-fluoro-2-methylnaphthalene-1,4-dione] | 127 to 129 °C | –
COc1ccc2c(c1)C(=O)C(C)=C(Cc1ccc(Br)cc1)C2=O [Compound 12.7, 3-(4-bromobenzyl)-7-methoxy-2-methylnaphthalene-1,4-dione] | 149 to 151 °C | –
COc1ccc2c(c1)C(=O)C(C)=C(Cc1ccc(C(F)(F)F)cc1)C2=O [Compound 12.8] | 137 to 139 °C | –
COc1cc(CC2=C(C)C(=O)c3cc(OC)ccc3C2=O)cc(OC)c1 [Compound 12.9, 3-(3,5-dimethoxybenzyl)-7-methoxy-2-methylnaphthalene-1,4-dione] | 151 to 153 °C | –
COc1cc2c(cc1OC)C(=O)C(Cc1ccc(C(F)(F)F)cc1)=C(C)C2=O [Compound 12.11, 6,7-dimethoxy-2-methyl-3-(4-(trifluoromethyl)benzyl)naphthalene-1,4-dione] | > 200 °C (dec.) | –
COc1cc2c(cc1OC)C(=O)C(Cc1ccc(Br)cc1)=C(C)C2=O [Compound 12.12, 6,7-dimethoxy-2-methyl-3-(4-bromobenzyl)naphthalene-1,4-dione] | > 200 °C (dec.) | –
COc1cc(CC2=C(C)C(=O)c3cc(OC)c(OC)cc3C2=O)cc(OC)c1 [Compound 12.13, 2-(3,5-dimethoxybenzyl)-6,7-dimethoxy-3-methylnaphthalene-1,4-dione] | 168 to 169 °C | –
COc1ccc(OC)c(CC2=C(C)C(=O)c3cc(OC)c(OC)cc3C2=O)c1 [Compound 12.14, 2-14(2,5-dimethoxybenzyl)-6,7-dimethoxy-3-methylnaphthalene-1,4-dione] | 166 to 167 °C | –
CC1=C(Cc2ccc(Br)cc2)C(=O)c2ccc(F)cc2C1=O [Compound 12.16, 2-(4-bromobenzyl)-6-fluoro-3-methylnaphthalene-1,4-dione] | 107 °C | –
CC1=C(Cc2ccc(F)c(Cl)c2)C(=O)c2ccc(F)cc2C1=O [Compound 12.17, 2-(3-chloro-4-fluorobenzyl)-6-fluoro-3-methylnaphthalene-1,4-dione] | 117 to 118 °C | –
CC1=C(Cc2ccc(F)c(C(F)(F)F)c2)C(=O)c2ccc(F)cc2C1=O [Compound 12.18, 6-fluoro-2-(4-fluoro-3-(trifluoromethyl)benzyl)-3-methylnaphthalene-1,4-dione] | 106 to 107 °C | –
CC1=C(Cc2ccc(C(F)(F)F)cc2)C(=O)c2c(C)cccc2C1=O [Compound 12.19, 2,5-dimethyl-3-(4-(trifluoromethyl)benzyl)naphthalene-1,4-dione] | 87 to 88 °C | –
CC1=C(Cc2ccc(Br)cc2)C(=O)c2c(C)cccc2C1=O [Compound 12.20, 3-(4-bromobenzyl)-2,5-dimethylnaphthalene-1,4-dione] | 149 to 150 °C | –
CC1=C(Cc2ccc(C(F)(F)F)cc2)C(=O)c2ccc(C)cc2C1=O [Compound 12.23, 2,7-dimethyl-3-(4-(trifluoromethyl)benzyl)naphthalene-1,4-dione] | 102 °C | –
CC1=C(Cc2ccc(Br)cc2)C(=O)c2ccc(C)cc2C1=O [Compound 12.24, 2,7-dimethyl-3-(4-bromobenzyl)naphthalene-1,4-dione] | 122 to 123 °C | –
CC1=C(Cc2ccc(C(F)(F)F)cc2)C(=O)c2cccc(C)c2C1=O [Compound 12.25, 2,8-dimethyl-3-(4-(trifluoromethyl)benzyl)naphthalene-1,4-dione] | 98 to 99 °C | –
CC1=C(Cc2ccc(Br)cc2)C(=O)c2cccc(C)c2C1=O [Compound 12.26, 2,8-dimethyl-3-(4-bromobenzyl)naphthalene-1,4-dione] | 116 to 118 °C | –
CC1=C(Cc2ccc(C(F)(F)F)cc2)C(=O)c2cc(C)c(C)cc2C1=O [Compound 12.27, 2,6,7-trimethyl-3-(4-(trifluoromethyl)benzyl)naphthalene-1,4-dione] | 143 to 144 °C | –
CC1=C(Cc2ccc(Br)cc2)C(=O)c2cc(C)c(C)cc2C1=O [Compound 12.28, 2,6,7-trimethyl-3-(4-bromobenzyl)naphthalene-1,4-dione] | 129 to 130 °C | –
Cc1c(O)c2ccccc2c2oc3cc(C(F)(F)F)ccc3c(=O)c12 [LJ144K, 5-hydroxy-6-methyl-10-(trifluoromethyl)-7H-benzo[c]xanthen-7-one] | – | apparent association constants with hematin [1]: 10^5-10^6 M^−1; IC50 values, antimalarial effects [2]: submicromolar range; Maximum inhibition (%) [3]: 75%; IC50 drug (equiv.)/hematin (equiv.) ratio [3]: 2.5 drug (equiv.)/hematin (equiv.) ratio
CC1=C(Cc2ccncc2)C(=O)c2ccccc2C1=O [LJ186] | – | antimalarial activity relative to chloroquine and P_TM29 [4]: more active than chloroquine or as active as P_TM29; inhibition of the β-hematin polymerization [3]: very potent inhibitors; Maximum inhibition (%) [3]: 80%; IC50 drug (equiv.)/hematin (equiv.) ratio [3]: 4.2 drug (equiv.)/hematin (equiv.) ratio
